According to patent publication US20170052170A1, “NOVEL CELL LINES AND METHODS” (priority 2009, published 2017):

Biological target: T1, sweet taste receptor (human T1R2 and T1R3 subunits, mouse Gα15) (Homo sapiens, UniProt Q7RTX0+Q8TE23, C757R/I191V/I486V/R317G)
T1 construct: expressed in transfected cells; host or cells: HEK293T (ATCC CRL-11268)
T1 sequence (Q8TE23 20-839 I191V/R317G/I486V): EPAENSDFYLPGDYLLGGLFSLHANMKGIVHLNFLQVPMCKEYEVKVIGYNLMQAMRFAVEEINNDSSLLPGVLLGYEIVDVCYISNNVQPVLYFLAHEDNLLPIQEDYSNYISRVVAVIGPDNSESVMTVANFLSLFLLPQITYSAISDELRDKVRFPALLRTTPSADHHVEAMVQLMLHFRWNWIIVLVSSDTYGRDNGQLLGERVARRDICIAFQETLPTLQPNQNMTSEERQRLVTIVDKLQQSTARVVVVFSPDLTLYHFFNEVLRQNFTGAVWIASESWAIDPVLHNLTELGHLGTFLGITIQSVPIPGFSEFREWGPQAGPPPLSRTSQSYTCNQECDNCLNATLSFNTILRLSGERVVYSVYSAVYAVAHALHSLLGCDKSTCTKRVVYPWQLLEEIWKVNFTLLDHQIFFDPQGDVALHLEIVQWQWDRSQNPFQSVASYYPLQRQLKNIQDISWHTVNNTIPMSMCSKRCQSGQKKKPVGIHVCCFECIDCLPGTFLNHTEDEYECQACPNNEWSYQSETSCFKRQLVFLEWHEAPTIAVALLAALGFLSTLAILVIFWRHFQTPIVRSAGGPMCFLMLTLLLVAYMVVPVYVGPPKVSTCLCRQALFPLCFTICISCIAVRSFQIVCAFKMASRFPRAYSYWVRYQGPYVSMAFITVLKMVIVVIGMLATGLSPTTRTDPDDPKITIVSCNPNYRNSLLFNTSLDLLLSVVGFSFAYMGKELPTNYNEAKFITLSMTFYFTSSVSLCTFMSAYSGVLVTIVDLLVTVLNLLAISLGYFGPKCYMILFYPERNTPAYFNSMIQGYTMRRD
T1 sequence (Q7RTX0 21-852 C757R): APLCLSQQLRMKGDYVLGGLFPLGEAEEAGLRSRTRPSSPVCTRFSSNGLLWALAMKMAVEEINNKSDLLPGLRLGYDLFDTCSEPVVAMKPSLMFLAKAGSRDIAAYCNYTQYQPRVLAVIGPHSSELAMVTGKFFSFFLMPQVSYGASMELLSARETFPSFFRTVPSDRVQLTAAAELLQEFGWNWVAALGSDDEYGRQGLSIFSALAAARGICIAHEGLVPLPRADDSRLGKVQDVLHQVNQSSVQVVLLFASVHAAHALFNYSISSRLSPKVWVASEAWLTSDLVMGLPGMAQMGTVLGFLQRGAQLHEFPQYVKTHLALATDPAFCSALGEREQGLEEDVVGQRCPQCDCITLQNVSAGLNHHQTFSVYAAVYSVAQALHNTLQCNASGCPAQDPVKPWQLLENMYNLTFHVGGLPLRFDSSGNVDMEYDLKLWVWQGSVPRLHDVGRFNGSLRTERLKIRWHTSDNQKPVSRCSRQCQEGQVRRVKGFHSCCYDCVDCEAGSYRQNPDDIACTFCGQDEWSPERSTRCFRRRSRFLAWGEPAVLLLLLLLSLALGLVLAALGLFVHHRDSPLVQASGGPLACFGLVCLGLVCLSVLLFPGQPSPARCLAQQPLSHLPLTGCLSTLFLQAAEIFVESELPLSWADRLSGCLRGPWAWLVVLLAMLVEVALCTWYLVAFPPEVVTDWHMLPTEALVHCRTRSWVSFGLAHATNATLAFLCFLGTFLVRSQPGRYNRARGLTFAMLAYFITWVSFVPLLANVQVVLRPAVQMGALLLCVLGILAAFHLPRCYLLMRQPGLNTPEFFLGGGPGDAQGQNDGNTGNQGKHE
Assay: sweet taste receptor-expressing cell-based assay (calcium flux)
Conditions: natural, high intensity and artificial sweeteners; FIGS. 23 and 24
Text: FIG. 24 (A-C) is series of line graphs representing the data obtained in various dose response experiments using sweet taste receptor agonists in a sweet taste receptor-expressing cell-based assay (using cells of this invention). (A) The responses of a sweet taste receptor-expressing cell line to natural caloric sweeteners were plotted as a function of the agonist concentration. (B) Dose response curves of common artificial sweeteners in a sweet taste receptor-expressing cell-based assay. (C) Dose response curves of natural high-intensity sweeteners in a sweet taste receptor-expressing cell-based assay.
FIG. 25 is a series of representative response traces generated after performing a sweet taste receptor-expressing cell-based assay using cells of this invention.
To identify a taste receptor modulator (e.g., umami taste receptor modulator or sweet taste receptor modulator), one exposes a cell or cell line of the invention to a test compound under conditions in which the taste receptor (e.g., umami taste receptor or sweet taste receptor) would be expected to be functional and then detects a statistically significant change (e.g., p<0.05) in taste receptor activity (e.g., umami taste receptor activity or sweet taste receptor activity) compared to a suitable control, e.g., cells that are not exposed to the test compound. Positive and/or negative controls using known agonists or antagonists and/or cells expressing different combinations of taste receptor subunits (e.g., umami taste receptor subunits or sweet taste receptor subunits) (and optionally a G protein) may also be used. In some embodiments, the taste receptor activity (e.g., umami taste receptor activity or sweet taste receptor activity) to be detected and/or measured is calcium release from the endoplasmic reticulum as a result of the down stream signaling events following taste receptor activation (e.g., umami taste receptor activation or sweet taste receptor activation). One of ordinary skill in the art would understand that various assay parameters may be optimized, e.g., signal to noise ratio.
See, e.g., FIGS. 23 and 24.

O=C(CO)[C@@H](O)[C@H](O)[C@H](O)CO [fructose]
response of sweet taste receptor cells and cell lines to known classes of sweet compounds: respond
